Columns and labels:
[1] = molecular target: NAMPT (human, recombinant, C-terminally His-tagged) (Homo sapiens, UniProt P43490); assay: Time-Resolved Fluorescence Resonance Energy Transfer (TR-FRET) Binding Assay of NAMPT; details: without substrates; 6.8 nM NAMPT, 200 nM probe, 3 hours equilibration
In short: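 Competitive binding against an Oregon Green 488 tracer (200 nM), 6.8 nM His-tagged enzyme, 1 nM Tb antibody, 2% DMSO, 3 h at RT. IC50 derived from TR-FRET ratios.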

NAMPT = NAMPT (Homo sapiens, UniProt P43490); assay: TR-FRET Binding Assay of NAMPT with PRPP; details: with 200 μM PRPP and 2.5 mM ATP; 2 nM NAMPT, 2 nM probe, 16 hours equilibration
Sequence of NAMPT (P43490 whole entry): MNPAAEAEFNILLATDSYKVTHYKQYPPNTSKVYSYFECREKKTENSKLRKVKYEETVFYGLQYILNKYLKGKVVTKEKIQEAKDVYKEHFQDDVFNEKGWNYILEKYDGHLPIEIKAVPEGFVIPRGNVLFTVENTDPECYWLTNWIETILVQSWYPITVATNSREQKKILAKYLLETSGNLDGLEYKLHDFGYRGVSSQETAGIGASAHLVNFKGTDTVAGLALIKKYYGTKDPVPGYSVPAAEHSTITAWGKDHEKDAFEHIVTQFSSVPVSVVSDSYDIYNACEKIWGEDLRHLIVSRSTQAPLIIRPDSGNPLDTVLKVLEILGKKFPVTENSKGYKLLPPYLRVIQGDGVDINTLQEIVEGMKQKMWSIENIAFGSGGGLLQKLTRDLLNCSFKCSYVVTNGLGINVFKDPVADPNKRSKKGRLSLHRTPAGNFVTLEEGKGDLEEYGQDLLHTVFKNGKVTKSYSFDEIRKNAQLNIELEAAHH
In short: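 Read-out is TR-FRET after a 16 h equilibration allowing possible compound modification by the enzyme. Final mix: 2 nM NAMPT, 2 nM probe, 1 nM Tb-anti-His antibody, 200 μM PRPP, 2.5 mM ATP, 2% DMSO.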

PC3 cells = assay: NAMPT Cell Proliferation Assay; format: cell-based; details: Homo sapiens, PC-3, 120 h, 5 days incubation, cell viability by Cell Titer Glo
In short: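 PC3 cells were plated at 500 cells/well in RPMI with 10% heat-inactivated FBS, left to attach overnight, then given compounds in 10-fold dilutions from 10 μM to 1×10^−5 μM. After 5 days at 37° C and 5% CO2, viability was read by luminescence and IC50s came from sigmoidal fits of percent inhibition.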

Sequence of NAMPT (human, recombinant, C-terminally His-tagged) (P43490 whole entry): as above

In the case of CC(C)C[C@@H](NC(=O)C1CC1)c1ccc(C(=O)NCc2ccn3ccnc3c2)s1 [Example 685, 5-{(1R)-1-[(cyclopropylcarbonyl)amino]-3-methylbutyl}-N-(imidazo[1,2-a]pyridin-7-ylmethyl)thiophene-2-carboxamide], the IC50 [1] is reported as 1250 nM, the IC50 (NAMPT) is reported as 1.36 nM and the IC50 (PC3 cells) is reported as 74 nM.
Work on CC(C)C[C@@H](NC(=O)CC1CCOC1)c1ccc(C(=O)NCc2ccn3ccnc3c2)s1 (stereo partly drawn) [Example 686, N-(imidazo[1,2-a]pyridin-7-ylmethyl)-5-{(1R)-3-methyl-1-[(tetrahydrofuran-3-ylacetyl)amino]butyl}thiophene-2-carboxamide] yielded an IC50 [1] of 959 nM, an IC50 (NAMPT) of 1.3 nM and an IC50 (PC3 cells) of 77.2 nM.
For CC(C)C[C@H](NC(=O)C1CC1)c1ccc(C(=O)NCc2ccn3ccnc3c2)s1 [Example 687, 5-{(1S)-1-[(cyclopropylcarbonyl)amino]-3-methylbutyl}-N-(imidazo[1,2-a]pyridin-7-ylmethyl)thiophene-2-carboxamide], the IC50 [1] was 97.3 nM, the IC50 (NAMPT) was 1.16 nM and the IC50 (PC3 cells) was 2.19 nM.
Work on O=C(NCc1ccn2ccnc2c1)c1cnc(C2CCN(c3ccccc3)CC2)s1 [Example 688, N-(imidazo[1,2-a]pyridin-7-ylmethyl)-2-(1-phenylpiperidin-4-yl)-1,3-thiazole-5-carboxamide] yielded an IC50 [1] of 1110 nM, an IC50 (NAMPT) of 2.66 nM and an IC50 (PC3 cells) of 5480 nM.
Compound O=C(NCc1ccn2ccnc2c1)Nc1ccc(O[C@@H]2CCN(C(=O)c3ccccc3F)C2)cc1 [Example 689, 1-(4-{[(3R)-1-(2-fluorobenzoyl)pyrrolidin-3-yl]oxy}phenyl)-3-(imidazo[1,2-a]pyridin-7-ylmethyl)urea] has an IC50 [1] of 16 nM, an IC50 (NAMPT) of 1.32 nM and an IC50 (PC3 cells) of 7.21 nM.
Compound O=C(NCc1ccn2ccnc2c1)Nc1ccc(O[C@@H]2CCN(C(=O)c3cccc(F)c3)C2)cc1 [Example 690, 1-(4-{[(3R)-1-(3-fluorobenzoyl)pyrrolidin-3-yl]oxy}phenyl)-3-(imidazo[1,2-a]pyridin-7-ylmethyl)urea] has an IC50 [1] of 64.3 nM, an IC50 (NAMPT) of 1.22 nM and an IC50 (PC3 cells) of 13.8 nM.
Work on O=C(NCc1ccn2ccnc2c1)Nc1ccc(O[C@@H]2CCN(C(=O)c3ccc(F)cc3)C2)cc1 [Example 691, 1-(4-{[(3R)-1-(4-fluorobenzoyl)pyrrolidin-3-yl]oxy}phenyl)-3-(imidazo[1,2-a]pyridin-7-ylmethyl)urea] yielded an IC50 [1] of 169 nM, an IC50 (NAMPT) of 0.67 nM and an IC50 (PC3 cells) of 77.7 nM.
Compound O=C(NCc1ccn2ccnc2c1)Nc1ccc(O[C@@H]2CCN(C(=O)c3ccc(F)cc3F)C2)cc1 [Example 692, 1-(4-{[(3R)-1-(2,4-difluorobenzoyl)pyrrolidin-3-yl]oxy}phenyl)-3-(imidazo[1,2-a]pyridin-7-ylmethyl)urea] has an IC50 [1] of 83.9 nM, an IC50 (NAMPT) of 1.19 nM and an IC50 (PC3 cells) of 19.8 nM.
With O=C(NCc1ccn2ccnc2c1)Nc1ccc(O[C@@H]2CCN(C(=O)c3ccc(C(F)(F)F)cc3)C2)cc1 [Example 693, 1-(imidazo[1,2-a]pyridin-7-ylmethyl)-3-[4-({(3R)-1-[4-(trifluoromethyl)benzoyl]pyrrolidin-3-yl}oxy)phenyl]urea] the IC50 [1] was 781 nM, the IC50 (NAMPT) was 1.42 nM and the IC50 (PC3 cells) was 652 nM.
O=C(NCc1ccn2ccnc2c1)Nc1ccc(O[C@@H]2CCN(C(=O)c3cc(F)cc(F)c3)C2)cc1 [Example 694, 1-(4-{[(3R)-1-(3,5-difluorobenzoyl)pyrrolidin-3-yl]oxy}phenyl)-3-(imidazo[1,2-a]pyridin-7-ylmethyl)urea] gave an IC50 [1] of 163 nM, an IC50 (NAMPT) of 1.12 nM and an IC50 (PC3 cells) of 24.7 nM.
O=C(NCc1ccn2ccnc2c1)Nc1ccc(O[C@@H]2CCN(C(=O)c3ccccc3Cl)C2)cc1 [Example 695, 1-(4-{[(3R)-1-(2-chlorobenzoyl)pyrrolidin-3-yl]oxy}phenyl)-3-(imidazo[1,2-a]pyridin-7-ylmethyl)urea] was tested, and the IC50 [1] was 13.7 nM, the IC50 (NAMPT) was 0.621 nM and the IC50 (PC3 cells) was 5.82 nM.
O=C(NCc1ccn2ccnc2c1)Nc1ccc(O[C@@H]2CCN(C(=O)c3ccc(Cl)cc3)C2)cc1 [Example 696, 1-(4-{[(3R)-1-(4-chlorobenzoyl)pyrrolidin-3-yl]oxy}phenyl)-3-(imidazo[1,2-a]pyridin-7-ylmethyl)urea] showed an IC50 [1] of 272 nM, an IC50 (NAMPT) of 0.725 nM and an IC50 (PC3 cells) of 667 nM.
O=C(NCc1ccn2ccnc2c1)c1cnc(C2CCN(c3ccccn3)CC2)s1 [Example 697, N-(imidazo[1,2-a]pyridin-7-ylmethyl)-2-[1-(pyridin-2-yl)piperidin-4-yl]-1,3-thiazole-5-carboxamide] was tested, and the IC50 [1] was 735 nM, the IC50 (NAMPT) was 0.802 nM and the IC50 (PC3 cells) was 633 nM.
Work on O=C(NCc1ccn2ccnc2c1)c1ccc(-c2cnn(CC3(F)CCOCC3)c2)s1 [Example 698, 5-{1-[(4-fluorotetrahydro-2H-pyran-4-yl)methyl]-1H-pyrazol-4-yl}-N-(imidazo[1,2-a]pyridin-7-ylmethyl)thiophene-2-carboxamide] yielded an IC50 [1] of 36.4 nM, an IC50 (NAMPT) of 0.629 nM and an IC50 (PC3 cells) of 0.67 nM.
Compound O=C(NCc1ccn2ccnc2c1)c1ccc(C2CCN(C(=O)c3ccccc3Cl)CC2)cc1 [Example 699, 4-[1-(2-chlorobenzoyl)piperidin-4-yl]-N-(imidazo[1,2-a]pyridin-7-ylmethyl)benzamide] has an IC50 [1] of 41.1 nM, an IC50 (NAMPT) of 0.721 nM and an IC50 (PC3 cells) of 5.27 nM.
O=C(NCc1ccn2ccnc2c1)c1ccc(C2CCN(C(=O)c3c(F)cccc3F)CC2)cc1 [Example 700, 4-[1-(2,6-difluorobenzoyl)piperidin-4-yl]-N-(imidazo[1,2-a]pyridin-7-ylmethyl)benzamide] gave an IC50 [1] of 68.4 nM, an IC50 (NAMPT) of 1.03 nM and an IC50 (PC3 cells) of 3.25 nM.
O=C(NCc1ccn2ccnc2c1)c1ccc(C2CCN(C(=O)c3ccc(F)c(F)c3)CC2)cc1 [Example 701, 4-[1-(3,4-difluorobenzoyl)piperidin-4-yl]-N-(imidazo[1,2-a]pyridin-7-ylmethyl)benzamide] showed an IC50 [1] of 367 nM, an IC50 (NAMPT) of 0.856 nM and an IC50 (PC3 cells) of 76.2 nM.
O=C(NCc1ccn2ccnc2c1)c1ccc(C2CCN(C(=O)c3cccc(C(F)(F)F)c3)CC2)cc1 [Example 702, N-(imidazo[1,2-a]pyridin-7-ylmethyl)-4-{1-[3-(trifluoromethyl)benzoyl]piperidin-4-yl}benzamide] gave an IC50 [1] of 568 nM, an IC50 (NAMPT) of 1.29 nM and an IC50 (PC3 cells) of 88 nM.
O=C(NCc1ccn2ccnc2c1)c1ccc(C2CCN(C(=O)c3cccc(OC(F)(F)F)c3)CC2)cc1 [Example 703, N-(imidazo[1,2-a]pyridin-7-ylmethyl)-4-{1-[3-(trifluoromethoxy)benzoyl]piperidin-4-yl}benzamide] gave an IC50 [1] of 559 nM, an IC50 (NAMPT) of 0.824 nM and an IC50 (PC3 cells) of 90.3 nM.
O=C(NCc1ccn2ccnc2c1)c1ccc(C2CCN(C(=O)c3ccc(OC(F)(F)F)cc3)CC2)cc1 [Example 704, N-(imidazo[1,2-a]pyridin-7-ylmethyl)-4-{1-[4-(trifluoromethoxy)benzoyl]piperidin-4-yl}benzamide] gave an IC50 [1] of 503 nM, an IC50 (NAMPT) of 0.777 nM and an IC50 (PC3 cells) of 91.5 nM.
Work on O=C(NCc1ccn2ccnc2c1)c1ccc(C2CCN(C(=O)c3ccc(C(F)(F)F)cc3)CC2)cc1 [Example 705, N-(imidazo[1,2-a]pyridin-7-ylmethyl)-4-{1-[4-(trifluoromethyl)benzoyl]piperidin-4-yl}benzamide] yielded an IC50 [1] of 876 nM, an IC50 (NAMPT) of 1.63 nM and an IC50 (PC3 cells) of 95.8 nM.
O=C(NCc1ccn2ccnc2c1)c1ccc(C2CCN(C(=O)c3ccccc3OC(F)(F)F)CC2)cc1 [Example 706, N-(imidazo[1,2-a]pyridin-7-ylmethyl)-4-{1-[2-(trifluoromethoxy)benzoyl]piperidin-4-yl}benzamide] showed an IC50 [1] of 84.1 nM, an IC50 (NAMPT) of 0.937 nM and an IC50 (PC3 cells) of 6.54 nM.
O=C(NCc1ccn2ccnc2c1)c1ccc(C2CCN(C(=O)Cc3ccccc3)CC2)cc1 [Example 707, N-(imidazo[1,2-a]pyridin-7-ylmethyl)-4-[1-(phenylacetyl)piperidin-4-yl]benzamide] gave an IC50 [1] of 277 nM, an IC50 (NAMPT) of 0.624 nM and an IC50 (PC3 cells) of 74.1 nM.
O=C(NCc1ccn2ccnc2c1)c1ccc(C2CCN(C(=O)c3ccccc3C(F)(F)F)CC2)cc1 [Example 708, N-(imidazo[1,2-a]pyridin-7-ylmethyl)-4-{1-[2-(trifluoromethyl)benzoyl]piperidin-4-yl}benzamide] was tested, and the IC50 [1] was 60 nM, the IC50 (NAMPT) was 0.9 nM and the IC50 (PC3 cells) was 5.97 nM.
CCCC(=O)N1CCC(c2ccc(NC(=O)NCc3ccn4ccnc4c3)cc2)CC1 [Example 709, 1-[4-(1-butanoylpiperidin-4-yl)phenyl]-3-(imidazo[1,2-a]pyridin-7-ylmethyl)urea] was tested, and the IC50 [1] was 19.4 nM, the IC50 (NAMPT) was 0.473 nM and the IC50 (PC3 cells) was 3.36 nM.
For CC[C@H](C)C(=O)N1CCC(c2ccc(NC(=O)NCc3ccn4ccnc4c3)cc2)CC1 [Example 710, 1-(imidazo[1,2-a]pyridin-7-ylmethyl)-3-(4-{1-[(2S)-2-methylbutanoyl]piperidin-4-yl}phenyl)urea], the IC50 [1] was 49.1 nM, the IC50 (NAMPT) was 1.25 nM and the IC50 (PC3 cells) was 2.76 nM.
Compound CC1CC1C(=O)N1CCC(c2ccc(NC(=O)NCc3ccn4ccnc4c3)cc2)CC1 (stereo not drawn) [Example 711, 1-(imidazo[1,2-a]pyridin-7-ylmethyl)-3-(4-{1-[(2-methylcyclopropyl)carbonyl]piperidin-4-yl}phenyl)urea] has an IC50 [1] of 88.5 nM, an IC50 (NAMPT) of 1.11 nM and an IC50 (PC3 cells) of 3.25 nM.
